Laboratory results reported in US20080014248A1, “Photosensitizer containing indole-3-alkylcarboxylic acid, and kit for photodynamic therapy containing the same” (priority 2006, published 2008).

Experiments:
[1] = system: G361 human melanoma cell line; experiment: G361 cell toxicity experiment (MTT assay), IAA with or without HRP; format: cell-based; conditions: 20 hours, G361 cells, FIG. 1
Protocol: G361 human melanoma cell line (ATCC, Rockville, Md.) was cultivated in a 5% CO2, 37 °C, 10% fetal bovine serum (FBS), and 50 μg/mL penicillin containing RPMI 1640 culture (WelGene, Daegu, Korea).
The cells cultivated in the medium were divided into 24 wells (4×10^4/well), and was then cultivated in a medium without FBS for 24 hours. Cytotoxic effect was measured using MTT (3,4-dimethylthiazol-2-yl)2,5-diphenyltetrazolium bromide) assay (Kim, D. S., Jeon, S. E., Park, K. C. Cell Signal, 16, 81-8, 2004).
An HRP (1.2 mg/ml, Sigma, St. Louis, Mo.) treated group (indicated by the ‘∘’ in FIG. 1) and a group untreated with HRP (indicated by the ‘▪’ in FIG. 1) were separated, each with a final IAA density between 1 and 500 mM in the culture. After cultivating for 20 hours, 0.5 mg/Ml of MTT was added to the culture and cultivated for 4 more hours. After adding and dissolving 1 ml of dimethylsufoxide solution in the well, the absorption was measured using ELISA reader (TECAN, Salzburg, Austria) at 540 nm. The viability rate for the control group was set at 100%.
(Calculations) Cell viability(%)=(experimental group/control group absorption)×100

[2] = system: Stomach cancer cell line (SNU1, SNU16, SNU601, SNU719), lung cancer cell line (NCI-H157, NCI-H1264), liver cancer cell line (SK-HEP-1); experiment: Toxicity experiment of various cell types (MTT assay), IAA/HRP, cancer cells; format: cell-based; conditions: 20 hours, FIG. 2a-2c
Protocol: (§1) Stomach cancer cell line (SNU1, SNU16, SNU601, SNU719, Korean Cell Bank, Seoul, Korea), and lung cancer cell line (NCI-H157, NCI-H1264, Korea Cell Bank, Seoul, Korea) were cultivated in a 5% CO2, 37 °C, 10% FBS, and 50 μg/mL penicillin containing RPMI 1640 culture (WelGene, Daegu, Korea), and liver cancer cell line (SK-HEP-1, Korean Cell Bank, Seoul, Korea) was cultivated in DMEM culture (WelGene, Daegu, Korea) under the same conditions. Fibroblasts have been used for the separation of the foreskin during phimosiectomy. […]
(§2) The cells cultivated in the medium were divided into 24 wells (4×10^4/well), and were then cultivated in a medium without FBS for 24 hours. Cytotoxic effect was measured using MTT (3,4-dimethylthiazol-2-yl)2,5-diphenyltetrazolium bromide) assay (Kim, D. S., Jeon, S. E., Park, K. C. […]
(§3) An HRP (1.2 mg/ml) treated group and a group untreated with HRP was separated, each with a final IAA concentration between 1 and 1000 mM in the culture. […] After adding and dissolving 1 ml of dimethylsufoxide solution in the well, the absorption was measured using ELISA reader at 540 nm. […]

normal human fibroblasts [3] = experiment: Toxicity experiment of various cell types (MTT assay), IAA/HRP, fibroblasts; format: cell-based; conditions: 20 hours, FIG. 2a-2c
Protocol: as §1, §2, §3

[4] = system: G361 human melanoma cell line, mouse melanoma cell line B16, liver cancer cell (SK-HEP-1); experiment: Toxicity experiment (MTT assay), IAA with UVB irradiation, cancer cells; format: cell-based; conditions: 1 to 1000 mM, 20 hours, FIG. 3
Protocol: (§4) (Cell Culture) After cultivating G361 human melanoma cell line (ATCC, Rockville, Md.) in a 5% CO2, 37 °C, 10% fetal bovine serum (FBS), 50 μg/mL streptomyocin, and 50 μg/mL penicillin containing DMEM culture, mouse melanoma cell line B16 (Korea Cell Bank, Seoul, Korea) liver cancer cell (SK-HEP-1, Korea Cell Bank, Seoul, Korea) was cultivated in the DMEM culture under the same conditions. Fibroblasts have been used for the separation of the foreskin during phimosiectomy. Following the skin biopsy method of Rheinward and Green (Rheinwald J G, Green H. Serial cultivation of strains of human epidermal keratinocytes; the formation of keratinizing colonies from single cells. Cell 1975;6: 331-43.), the […] were cultivated in a 10% fetal bovine serum (FBS), 50 μg/mL of streptomyocin, and 50 μg/mL of penicillin containing DMEM culture.
(§5) The cells cultivated in the medium were divided into 24 wells (4×10^4/well), and was then cultivated in a medium without FBS for 24 hours. Cytotoxic effect was measured using MTT (3,4-dimethylthiazol-2-yl)2,5-diphenyltetrazolium bromide) assay. An ICA group treated with UVB (100 mJ/cm^2) and a group with ICA alone were separated, each with a final IAA concentration between 1 and 1000 mM in the culture. […] After adding and dissolving 1 ml of dimethylsufoxide solution in the well, the absorption was measured using ELISA reader at 540 nm. […]

normal human fibroblasts [5] = experiment: Toxicity experiment (MTT assay), IAA with UVB irradiation, fibroblasts; format: cell-based; conditions: 1 to 1000 mM, 20 hours, FIG. 3
Protocol: as §4, §5

[6] = Photo-activation of IAA by different wavelength of light, free radical formation by DCF (dichlorofluorescein) assay; format: physicochemical; conditions: 1 mM IAA, HL-2000-HP irradiator, FIG. 4
Protocol: In order to study the effects of different wavelength of light, IAA was irradiated with HL-2000-HP (Ocean Optics, Dunedin, Fla., USA). Free radical formation was measured by DCF (dichlorofluorescein) assay. In order to induce activity of DCFH-DA, DCFH-DA was dissolved to a 1 mM concentration in 100% ethanol. 350 ul of the solution was then added to 1.75 ml of 0.01 N NaOH and allowed reaction for 5, 10, and 20 minutes. The activated DCFH-DA solution was then prepared by mixing 17.9 ml of 25 mM natrium-phosophoric acid buffer solution (pH 7.2). 1 mM of IAA was then administered to the activated DCFH-DA, and using HL-2000HP light irradiator, various wavelength filters (380, 400, 480, 520, 590, 640 nm) (Thorlabs, Inc., Long Beach, Calif., USA) were used to observe any photoactivation of IAA using each wavelength. Absorption was measured using ELISA reader at 490 nm.

[7] = system: Human lung cancer cells (NCI-H1264 cell) tumor; experiment: Treatment of cancer by combination of IAA and IPL in nude mouse (Hematoxylin & Eosin stain, TUNEL assay); format: in vivo; conditions: IAA 50 mg/kg intravenous, 4 and 7 days after cancer cell injection, IPL 20 J/cm2 thirty minutes later, biopsy at twelve days, FIG. 6
Description: Intense pulse light (IPL) flash lamp by Eclipse was used for visible light irradiation. 20 Irradiation of 20 J/cm^2 intensity was used with a IPL apparatus able to irradiate between 515 nm to 1200 nm. After applying transmission gel (PROGEL DA-YO Medical, Seoul, Korea) to areas of tumor formation each region was irradiated twice using IPL. Human lung cancer cells (NCI-[…] cell, 1×10^6) were subcutaneously injected into nude mouse (Charles River Lab. Wilmington, Mass./male, 6 weeks old, weight 22-25 g). […] 4 and 7 days after cancer cell injection, these mice were injected with IAA (50 mg/kg). Thirty minutes after intravenous injection of IAA, mice were irradiated with IPL (20 J/cm2). Twelve days after cancer cell injection, biopsy was done and tunnel stain was also performed. […] Experimental IAA (10 mg/ml in 50 mM NaHCO/2% v/v ethanol/water, pH 7) was prepared. A control group of mice with tumor mass formation and an experimental group of mice injected with IAA (pH 7, 50 mg/kg) were separated. The injected group was again separated into two groups, one group treated with IAA after 4 days of cancer cell injection and the other after 7 days. Thirty minutes after intravenous injection of IAA, mice were irradiated with IPL (20 J/cm2). A TUNEL (Chemicon, Temecula, Calif.) assay kit was used for the present experiment. […]

NCI-H1264 cell = experiment: Prevention of cancer by combining IAA and IPL (treatment before appearance of tumor mass, biopsy); format: in vivo, nude mouse; conditions: IAA and IPL treatment one, three and five days after NCI-H1264 cell injection, biopsy ten days after injection, FIG. 7
Protocol: It was observed that the combination of IAA and IPL could induce cancer cell necrosis. However, prevention of histologic or distant metastasis is more important in the treatment of cancer. In order to study the prevention effect, IAA and IPL treatment was performed after cancer cell injection but before the appearance of tumor mass. One, three, and five days after NCI-[…] cell injection, IAA and IPL treatment was performed. Ten days after cancer cell injection, biopsy was done. […] Thus, it can be said that IAA and IPL treatment was effective in the prevention of distant metastasis.

With `O=C(O)Cc1c[nH]c2ccccc12` [IAA, Indole-3-acetic acid] the “cytotoxic effects (cell viability, MTT)” value ([1]; IAA alone (no HRP), IAA 1 to 500 mM) was “no signs of cytotoxic effects”, the “cytotoxic effects (cell viability, MTT)” value ([1]; IAA and HRP (1.2 mg/ml), IAA density of at least 100 mM) was “definite cytotoxic effects” and the “toxicity (cell viability, MTT)” value ([2]; IAA administered with HRP (1.2 mg/ml)) was “toxic to most of the cancer cells”. The “toxicity (cell viability, MTT)” value ([2]; IAA alone, 1 to 1000 mM) was “not toxic to either normal cells or cancer cells”, the “toxicity (cell viability, MTT)” value (normal human fibroblasts [3]; IAA administered with HRP (1.2 mg/ml), normal human fibroblasts) was “not toxic to normal human fibroblasts” and the “toxicity (cell viability, MTT)” value (normal human fibroblasts [3]; IAA alone, 1 to 1000 mM, normal cells (fibroblasts)) was “not toxic to either normal cells or cancer cells”. For the same compound, the “toxicity (cell viability, MTT)” value ([4]; IAA alone) was “not toxic to either normal cells or cancer cells”, the “toxicity (cell viability, MTT)” value ([4]; IAA treated with UVB (100 mJ/cm^2)) was “toxic to most of the cancer cells” and the “toxicity (cell viability, MTT)” value (normal human fibroblasts [5]; IAA alone, normal cells (fibroblasts)) was “not toxic to either normal cells or cancer cells”. For the same compound, the “toxicity (cell viability, MTT)” value (normal human fibroblasts [5]; IAA treated with UVB (100 mJ/cm^2), normal human fibroblasts) was “not toxic to normal human fibroblasts”, the “activation of IAA by light (free radical formation, DCF assay)” value ([6]; 480 nm (blue) filter) was “particularly effective” and the “activation of IAA by light (free radical formation, DCF assay)” value ([6]; 520 (green) filter) was “particularly effective”. For the same compound, the “tumor necrosis (Hematoxylin & Eosin stain and TUNEL assay)” value [7] was “can induce tumor necrosis” and the “tumor cell growth (biopsy)” value (NCI-H1264 cell) was “not observed in treated tissues”.
